Measurements from patent US12338283B2, “Methods for targeting the immune checkpoint PD1 pathway for treating pulmonary fibrosis” (CEDARS-SINAI MEDICAL CENTER, priority 2017, dated 2025).

Tests used:
[1] = system: patients with IPF; details: cited from earlier work
[2] = system: NSG mice injected with CD274^high IPF fibroblasts; test: Humanized SCID IPF model: lung fibrosis (hydroxyproline, Masson trichrome) in NSG mice injected with IPF fibroblasts; type: in vivo, mouse; details: mice receiving CD274^high lung fibroblasts, compared with vehicle (CMC-Na) treated mice (FIG. 19E, 19F)
Method: FIG. 19A-J show CD274 and FAK signaling are required for lung fibroblast invasion. In the experimental results shown in FIG. 19A-FIG. 19C, equal number of cells were seeded in the upper part of transwells and cell migration and invasion assays were performed (n=3 per group). […] Scale bar: 1 mm. FIG. 19B and FIG. 19C are graphs that show cell migration index or invasion index, which was calculated as the number of cells attached to the bottom of control or Matrigel-coated membrane after 24 h, normalized to respective CD274^low lung fibroblasts. […] GAPDH served as equal loading control. FIG. 19E, FIG. 19G, and FIG. 19I show hydroxyproline contents in lung tissues. FIG. 19F, FIG. 19H and FIG. 19J show Masson trichrome staining of collagen on lung sections from NSG mice injected with CD274^low and CD274^high IPF fibroblasts treated with VS4718, vehicle control CMC-Na, or from NSG mice receiving gRNA-CTL or CD274 KO lung fibroblasts (n=6 per group), or from NSG mice injected with CD274^high IPF fibroblasts treated with Q-CD274 (n=12 per group) or isotype control IgG (n=12 for D0-35 IgG, n=11 for D35-63 IgG). Scale bars (FIG. 19F, FIG. 19H): 1 mm (top panel), 100 μm (middle and lower panels). Throughout, data are mean±sem. *P<0.05; **P<0.01 by student's t test (FIG. 19B, FIG. 19C, FIG. 19E, FIG. 19G).
The effect of the inhibition is assessed with hyroxyproline assay. […]

[3] = system: CD274+ fibroblasts; test: Transwell migration assay of flow-sorted IPF lung fibroblasts; type: cell-based, human; details: CD274^low and CD274^high IPF fibroblasts, 24 h, vs vehicle DMSO (FIG. 19A-C)
Method: (§1) CD274+ and CD274-fibroblast were flow sorted from fibroblasts of healthy and IPF lungs. The cells were plated onto transwells for migration assay, with and without anti-CD274 antibody (α-CD274) and control IgG. Migratory fibroblasts were fixed, stained, and photographed. […] CD274+ and CD274− fibroblast were flow sorted from fibroblasts of healthy and IPF lungs. The cells were plated onto matrigel chamber for invasion assay, with and without anti-CD274 antibody (α-CD274) and control IgG. Invasive fibroblasts were fixed, stained, and photographed.
FIG. 19A-J show CD274 and FAK signaling are required for lung fibroblast invasion. In the experimental results shown in FIG. 19A-FIG. 19C, equal number of cells were seeded in the upper part of transwells and cell migration and invasion assays were performed (n=3 per group). […] Scale bar: 1 mm. FIG. 19B and FIG. 19C are graphs that show cell migration index or invasion index, which was calculated as the number of cells attached to the bottom of control or Matrigel-coated membrane after 24 h, normalized to respective CD274^low lung fibroblasts. […] GAPDH served as equal loading control. FIG. 19E, FIG. 19G, and FIG. 19I show hydroxyproline contents in lung tissues. […]
(§2) CD274+ and CD274− fibroblasts from IPF and healthy lungs were flow sorted and analyzed with an invasion assay.

[4] = system: CD274+ IPF fibroblasts; test: Matrigel invasion assay of flow-sorted IPF lung fibroblasts; type: cell-based, human
Method: as §1
FIG. 10A is a schematic representation of an in vitro invasion assay: Lung fibroblasts were seeded in the upper part of transwells. Cells attached to the bottom of Matrigel-coated membrane after 24 h were considered invasive fibroblasts. Cells that remained on top of Matrigel-coated membrane were considered non-invasive fibroblasts. […]
FIG. 19A-J show CD274 and FAK signaling are required for lung fibroblast invasion. […] FIG. 19B and FIG. 19C are graphs that show cell migration index or invasion index, which was calculated as the number of cells attached to the bottom of control or Matrigel-coated membrane after 24 h, normalized to respective CD274^low lung fibroblasts. […]
as §2

CC(=O)N[C@@H](CS)C(=O)O [acetylcysteine]
clinical benefit in patients with IPF [1]: some benefits

Cc1ccc(=O)n(-c2ccccc2)c1 [Pirfenidone]
disease progression [1]: reduces disease progression
improve lung function or reduce fibrosis [1]: neither

COC(=O)c1ccc2c(c1)NC(=O)/C2=C(\Nc1ccc(N(C)C(=O)CN2CCN(C)CC2)cc1)c1ccccc1 [nintedanib]
improve lung function or reduce fibrosis [1]: neither

CNC(=O)c1ccccc1Nc1cc(Nc2ccc(N3CCOCC3)cc2OC)ncc1C(F)(F)F [VS4718]
development of fibrosis [2]: prevented the development of fibrosis
cell migration of lung fibroblasts [3]: significantly blocked
cell invasion of lung fibroblasts ([4]; CD274^low and CD274^high IPF fibroblasts, Matrigel-coated membrane, 24 h, vs vehicle DMSO (FIG. 19A-C)): significantly blocked
invasiveness / invasive phenotype of CD274+ fibroblasts ([4]; flow-sorted CD274+ IPF fibroblasts, matrigel chamber): reduced invasiveness

COc1ccccc1Oc1c(NS(=O)(=O)c2ccc(C(C)(C)C)cc2)nc(-c2ncccn2)nc1OCCO [Bosentan]
clinical benefit in patients with IPF [1]: not better than placebo

B1: Interferon gamma-1b: interferon-gamma replenishment tested in IPF trials (protein, UniProt P01579 24-161, looked up)
Interferon gamma: QDPYVKEAENLKKYFNAGHSDVADNGTLFLGILKNWKEESDRKIMQSQIVSFYFKLFKNFKDDQSIQKSVETIKEDMNVKFFNSNKKKRDDFEKLTNYSVTDLNVQRKAIHELIQVMAELSPAAKTGKRKRSQMLFRG
survival for patients with IPF [1]: did not improve survival
